ChEMBL document CHEMBL4251610, “Branching tryptamines as a tool to tune their antiproliferative activity” (Eur J Med Chem, 2018)

Key:
Format in all cases: functional, cell-based
[1] = test system: HEK293; assay: Antiproliferative activity against HEK293 cells after 24 hrs by MTT assay; conditions: Homo sapiens, HEK293, 24 h
[2] = test system: Jurkat; assay: Antiproliferative activity against human Jurkat cells after 24 hrs by MTT assay
[3] = test system: HepG2; assay: Antiproliferative activity against human HepG2 cells after 24 hrs by MTT assay; conditions: HepG2, 24 h
[4] = test system: SH-SY5Y; assay: Antiproliferative activity against human SH-SY5Y cells after 24 hrs by MTT assay

Structure (SMILES) | IC50 [1] [µM] | IC50 [2] [µM] | IC50 [3] [µM] | IC50 [4] [µM]
Cc1[nH]c2ccc(Br)cc2c1CC(N)c1ccc(F)cc1 (configuration not stated) | 23.2 | 11.8 | 9.58 | 22.9
Cc1ccc(C(N)Cc2c(C)[nH]c3ccc(Br)cc23)cc1 (configuration not stated) | 23.2 | 9.86 | 7.76 | 21.9
Cc1[nH]c2ccc(-c3ccccc3)cc2c1CCNCc1ccccc1 | 16.6 | 1.45 | 1.49 | 5.71
Cc1[nH]c2ccc(-c3ccccc3)cc2c1CC(N)c1ccccc1 (configuration not stated) | 10.1 | 1.58 | 1.82 | 12.5
Cc1[nH]c2ccc(F)cc2c1CC(N)c1ccccc1 (configuration not stated) | 73.5 | 15.2 | 15.8 | 59.1
Cc1c(CC(N)c2ccccc2)c2cc(F)ccc2n1Cc1ccccc1 (configuration not stated) | 16.7 | 14 | 13.1 | 15
Cc1[nH]c2ccc(F)cc2c1CC(NCc1ccccc1)c1ccccc1 (configuration not stated) | 65.2 | 13.8 | 19.4 | 20.2
Cc1[nH]c2ccc(Br)cc2c1CC(N)c1ccc(Cl)cc1 (configuration not stated) | 18.4 | 7.5 | 8.43 | 18.6
COc1cc(CNCCc2c(C)[nH]c3ccc(F)cc23)cc2c1OCO2 | 17.7 | 13.9 | 16.4 | 12.5
Cc1c(CC(N)c2ccccc2)c2cc(-c3ccccc3)ccc2n1Cc1ccccc1 (configuration not stated) | 16.3 | 1.9 | 1.46 | 11.9
Cc1[nH]c2ccccc2c1CC(N)c1ccccc1 (configuration not stated) | 109 | 15.5 | 16.7 | 117
COc1ccc(C(N)Cc2c(C)[nH]c3ccc(Br)cc23)cc1 (configuration not stated) | 18.7 | 8.14 | 7.12 | 17.8
Cc1[nH]c2ccc(Br)cc2c1C[C@H](N)c1ccccc1 | 34.8 | 13.8 | 10.8 | 25.2
Cc1c(CCN)c2cc(-c3ccccc3)ccc2n1Cc1ccccc1 | 15.4 | 3.82 | 1.9 | 12.2
Cc1ccc2[nH]c(C)c(CC(N)c3ccccc3)c2c1 (configuration not stated) | 94 | 13.2 | 17.1 | 46.1
Cc1[nH]c2ccc(-c3ccccc3)cc2c1CC(NCc1ccccc1)c1ccccc1 (configuration not stated) | 20.1 | 8.88 | 45.5 | 20.1
Cc1[nH]c2ccc(F)cc2c1CCNCc1ccccc1 | 21.4 | 12.9 | 14.7 | 25
Cc1[nH]c2ccc(F)cc2c1CCN | > 100 | > 100 | > 100 | > 100
COc1cc(CNCCc2c(C)[nH]c3ccc(-c4ccccc4)cc23)cc2c1OCO2 | 8.27 | 1.51 | 1.37 | 9.07
Cc1[nH]c2ccc(Br)cc2c1CC(N)c1ccccc1 (configuration not stated) | 39.4 | 20.4 | 14 | 42.7
Cc1[nH]c2ccc(Br)cc2c1CC(N)c1cc(Cl)cc(Cl)c1 (configuration not stated) | 30.9 | 9.55 | 14.8 | 27.6
COc1cc(CNC(Cc2c(C)[nH]c3ccc(F)cc23)c2ccccc2)cc2c1OCO2 (configuration not stated) | 54.9 | 14.5 | 15.6 | 20
Cc1c(CCN)c2cc(F)ccc2n1Cc1ccccc1 | 17.2 | 13.5 | 19.7 | 13.1
